From patent US12018016B2, “Aryl sulfonyl (hydroxy) piperidines as CCR6 inhibitors” (CHEMOCENTRYX, INC., priority 2021, dated 2024)

The compounds below were run against T1, human CCR6 (Homo sapiens, UniProt P51684) (assay: Migration assay (chemotaxis, ChemoTX)). Details: hCCR6-transfected Ba/F3 cells in human serum, migration to recombinant human CCL20 10 nM, 37° C. 45 minutes; read-out: Potency (IC50 value in the migration assay).
T1 construct: expressed in transfected cells; host or cells: Ba/F3 cells (mouse pro-B line)
T1 sequence (P51684 1-374): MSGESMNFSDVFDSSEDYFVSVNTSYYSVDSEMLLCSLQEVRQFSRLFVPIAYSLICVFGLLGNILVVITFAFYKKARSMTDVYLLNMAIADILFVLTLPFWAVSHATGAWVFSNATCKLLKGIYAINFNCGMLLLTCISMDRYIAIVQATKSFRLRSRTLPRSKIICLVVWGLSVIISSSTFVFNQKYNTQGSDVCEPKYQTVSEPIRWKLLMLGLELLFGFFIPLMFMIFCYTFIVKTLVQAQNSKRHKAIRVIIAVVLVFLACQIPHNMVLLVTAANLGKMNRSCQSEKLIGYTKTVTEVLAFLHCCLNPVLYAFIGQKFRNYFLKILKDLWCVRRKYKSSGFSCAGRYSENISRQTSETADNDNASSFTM
Format: cell-based
Description: A chemotaxis assay can be used to determine the efficacy of potential receptor antagonists at blocking the migration mediated through chemokine receptors, such as CCR6. This assay is routinely performed using the ChemoTX® microchamber system with a 5-μm pore-sized polycarbonate membrane. Chemokine receptor-expressing cells are required for such an assay. In this case, Ba/F3 cells (Palacios et al., Nature, 309:126, 1984) transfected with the gene for human CCR6 under control of the CMV promotor were used. To begin such an assay, hCCR6-transfected Ba/F3 cells are first grown for 24 hr in medium supplemented with sodium butyrate, which increases CCR6 transcription via the CMV promotor. The prepared Ba/F3 cells, are collected by centrifugation at 400×g at room temperature, then suspended at 4 million/ml in human serum. The compound being tested is serially diluted from a maximum final concentration of 1 μM (or an equivalent volume of its solvent (DMSO)) and is then added to the cell/serum mixture. Separately, recombinant human CCL20 (MIP-3α/LARC) at its EC50 concentration (10 nM) is placed in the lower wells of the ChemoTX® plate. The 5-μm (pore size) polycarbonate membrane is placed onto the plate, and 20 μL of the cell/compound mixture is transferred onto each well of the membrane. The plates are incubated at 37° C. for 45 minutes, after which the polycarbonate membranes are removed and 5 μl of the DNA-intercalating dye CyQUANT (Invitrogen, Carlsbad, CA) is added to the lower wells. The amount of fluorescence, corresponding to the number of migrated cells, is measured using a Spectrafluor Plus plate reader (TECAN, San Jose, CA).

Row | Compound | IC50
1 | O=S(=O)(c1ccc(-c2ccc3[nH]ncc3c2)cc1)N1CC[C@@H](Nc2ccc(C(F)(F)F)cn2)[C@@H](O)C1 [Example 23, (3S,4R)-1-((4-(1H-indazol-5-yl)phenyl)sulfonyl)-4-((5-(trifluoromethyl)pyridin-2-yl)amino)piperidin-3-ol] | < 1 nM
2 | Cc1cc(C(F)(F)F)cnc1N[C@@H]1CCN(S(=O)(=O)c2ccc(-c3cnc4[nH]cc(C#N)c4c3)cc2)C[C@@H]1O [Compound 192] | < 1 nM
3 | Nc1nnc2ccc(-c3ccc(S(=O)(=O)N4CC[C@@H](Nc5ccc(C(F)(F)F)cn5)[C@@H](O)C4)cc3)cn12 [Example 13, (3S,4R)-1-((4-(3-amino-[1,2,4]triazolo[4,3-a]pyridin-6-yl)phenyl)sulfonyl)-4-((5-(trifluoromethyl)pyridin-2-yl)amino)piperidin-3-ol] | < 1 nM
4 | O=C1NCc2ncc(-c3ccc(S(=O)(=O)N4CC[C@@H](Nc5ccc(C(F)(F)F)cn5)[C@@H](O)C4)cc3)cc21 [Example 48, 3-(4-(((3S,4R)-3-hydroxy-4-((5-(trifluoromethyl)pyridin-2-yl)amino)piperidin-1-yl)sulfonyl)phenyl)-6,7-dihydro-5H-pyrrolo[3,4-b]pyridin-5-one] | < 1 nM
5 | O=S(=O)(c1ccc(-c2ccc(N3CC(O)C3)nc2)cc1)N1CC[C@@H](Nc2ccc(C(F)(F)F)cn2)[C@@H](O)C1 [Compound 174] | < 1 nM
6 | O=S(=O)(c1ccc(-c2ccncc2)cc1)N1CC[C@@H](Nc2ccc(C(F)(F)F)cn2)[C@@H](O)C1 [Compound 161] | < 1 nM
7 | N#Cc1ccc(N[C@@H]2CCN(S(=O)(=O)c3ccc(-c4cnc5[nH]cc(C#N)c5c4)cc3)C[C@@H]2O)nc1 [Example 34, 5-[4-[[(3S,4R)-4-[(5-cyano-2-pyridyl)amino]-3-hydroxy-1-piperidyl]sulfonyl]phenyl]-1H-pyrrolo[2,3-b]pyridine-3-carbonitrile] | < 1 nM
8 | NC(=O)c1cc(-c2ccc(S(=O)(=O)N3CC[C@@H](Nc4ccc(Cl)cn4)[C@@H](O)C3)cc2)ccn1 [Compound 87] | < 1 nM
9 | Cc1nnc(-c2cc(-c3ccc(S(=O)(=O)N4CC[C@@H](Nc5ccc(C(F)(F)F)cn5)[C@@H](O)C4)cc3)ccn2)[nH]1 [Compound 64, (3S,4R)-1-((4-(2-(5-methyl-4H-1,2,4-triazol-3-yl)pyridin-4-yl)phenyl)sulfonyl)-4-((5-(trifluoromethyl)pyridin-2-yl)amino)piperidin-3-ol] | 1 to 10 nM
10 | Cc1cc(-c2ccc(S(=O)(=O)N3CC[C@@H](Nc4ccc(C(F)(F)F)cn4)[C@@H](O)C3)cc2)cc2cnn(C)c12 [Compound 123] | < 1 nM
11 | N[C@H]1C[C@@H](Nc2cc(-c3ccc(S(=O)(=O)N4CC[C@@H](Nc5ccc(C(F)(F)F)cn5)[C@@H](O)C4)cc3)ccn2)C1 [Compound 129] | < 1 nM
12 | Cc1cc2[nH]ncc2cc1-c1ccc(S(=O)(=O)N2CC[C@@H](Nc3ccc(C(F)(F)F)cn3)[C@@H](O)C2)cc1 [Example 25, (3S,4R)-1-((4-(6-methyl-1H-indazol-5-yl)phenyl)sulfonyl)-4-((5-(trifluoromethyl)pyridin-2-yl)amino)piperidin-3-ol] | 1 to 10 nM
13 | CN(C)[C@H]1C[C@@H](Nc2ccc(-c3ccc(S(=O)(=O)N4CC[C@@H](Nc5ccc(C(F)(F)F)cn5)[C@@H](O)C4)cc3)cn2)C1 [Compound 96] | < 1 nM
14 | Cc1cnc(C(N)=O)cc1-c1ccc(S(=O)(=O)N2CC[C@@H](Nc3ccc(C(F)(F)F)cn3)[C@@H](O)C2)cc1 [Example 20, 4-(4-(((3S,4R)-3-Hydroxy-4-((5-(trifluoromethyl)pyridin-2-yl)amino)piperidin-1-yl)sulfonyl)phenyl)-5-methylpicolinamide] | < 1 nM
15 | O=S(=O)(c1ccc(-c2ccc(N3CCC3)nc2)cc1)N1CC[C@@H](Nc2ccc(C(F)(F)F)cn2)[C@@H](O)C1 [Compound 100] | < 1 nM
16 | Cc1c(-c2ccc(S(=O)(=O)N3CC[C@@H](Nc4ccc(C(F)(F)F)cn4)[C@@H](O)C3)cc2)ccc2[nH]ncc12 [Example 26, (3S,4R)-1-((4-(4-methyl-1H-indazol-5-yl)phenyl)sulfonyl)-4-((5-(trifluoromethyl)pyridin-2-yl)amino)piperidin-3-ol] | < 1 nM

Row | Compound | IC50
17 | Cc1noc(-c2cc(-c3ccc(S(=O)(=O)N4CC[C@@H](Nc5ccc(C(F)(F)F)cn5)[C@@H](O)C4)cc3)ccn2)n1 [Compound 66, (3S,4R)-1-((4-(2-(3-methyl-1,2,4-oxadiazol-5-yl)pyridin-4-yl)phenyl)sulfonyl)-4-((5-(trifluoromethyl)pyridin-2-yl)amino)piperidin-3-ol] | 1 to 10 nM
18 | O=S(=O)(c1ccc(-c2cnc3[nH]ccc3c2F)cc1)N1CC[C@@H](Nc2ccc(C(F)(F)F)cn2)[C@@H](O)C1 [Compound 119] | < 1 nM
19 | NC1CCN(c2ccc(-c3ccc(S(=O)(=O)N4CC[C@@H](Nc5ccc(C(F)(F)F)cn5)[C@@H](O)C4)cc3)cn2)CC1 [Compound 106] | < 1 nM
20 | O=S(=O)(c1ccc(-c2ccc(N3CC4(COC4)C3)nc2)cc1)N1CC[C@@H](Nc2ccc(C(F)(F)F)cn2)[C@@H](O)C1 [Compound 93] | < 1 nM
21 | O=C(NO)c1cc(-c2ccc(S(=O)(=O)N3CC[C@@H](Nc4ccc(C(F)(F)F)cn4)[C@@H](O)C3)cc2)ccn1 [Compound 74, N-hydroxy-4-(4-(((3S,4R)-3-hydroxy-4-((5-(trifluoromethyl)pyridin-2-yl)amino)piperidin-1-yl)sulfonyl)phenyl)picolinamide] | 1 to 10 nM
22 | COc1cc(-c2ccc(S(=O)(=O)N3CC[C@@H](Nc4ccc(C(F)(F)F)cn4)[C@@H](O)C3)cc2)cc(-c2nnc(C)o2)n1 [Compound 214] | < 1 nM
23 | CN(C)C1CCN(c2ccc(-c3ccc(S(=O)(=O)N4CC[C@@H](Nc5ccc(C(F)(F)F)cn5)[C@@H](O)C4)cc3)cn2)CC1 [Compound 105] | 1 to 10 nM
24 | Nc1nc2ccc(-c3ccc(S(=O)(=O)N4CC[C@@H](Nc5ccc(C(F)(F)F)cn5)[C@@H](O)C4)cc3)cc2c(=O)[nH]1 [Example 30, 2-amino-6-(4-(((3S,4R)-3-hydroxy-4-((5-(trifluoromethyl)pyridin-2-yl)amino)piperidin-1-yl)sulfonyl)phenyl)quinazolin-4(3H)-one] | < 1 nM
25 | CN(C)CCN(C)c1cc(-c2ccc(S(=O)(=O)N3CC[C@@H](Nc4ccc(C(F)(F)F)cn4)[C@@H](O)C3)cc2)ccn1 [Compound 138] | < 1 nM
26 | Cc1c(-c2ccc(S(=O)(=O)N3CC[C@@H](Nc4ccc(C#N)cn4)[C@@H](O)C3)cc2)cnc2[nH]ccc12 [Example 33, 6-[[(3S,4R)-3-hydroxy-1-[4-(4-methyl-1H-pyrrolo[2,3-b]pyridin-5-yl)phenyl]sulfonyl-4-piperidyl]amino]pyridine-3-carbonitrile] | < 1 nM
27 | O=C1C[C@H](Nc2ccc(-c3ccc(S(=O)(=O)N4CC[C@@H](Nc5ccc(C(F)(F)F)cn5)[C@@H](O)C4)cc3)cn2)CN1 [Compound 167] | < 1 nM
28 | COc1cnccc1-c1ccc(S(=O)(=O)N2CC[C@@H](Nc3ccc(C(F)(F)F)cn3)[C@@H](O)C2)cc1 [Compound 151] | 1 to 10 nM
29 | Cn1c(-c2ccc(S(=O)(=O)N3CC[C@@H](Nc4ccc(C(F)(F)F)cn4)[C@@H](O)C3)cc2)cnc1C(N)=O [Compound 71, 5-(4-(((3S,4R)-3-hydroxy-4-((5-(trifluoromethyl)pyridin-2-yl)amino)piperidin-1-yl)sulfonyl)phenyl)-1-methyl-1H-imidazole-2-carboxamide] | < 1 nM
30 | O=S(=O)(c1ccc(-c2ccnc(CO)c2)cc1)N1CC[C@@H](Nc2ccc(C(F)(F)F)cn2)[C@@H](O)C1 [Example 10, (3S,4R)-1-((4-(2-(hydroxymethyl)pyridin-4-yl)phenyl)sulfonyl)-4-((5-(trifluoromethyl)pyridin-2-yl)amino)piperidin-3-ol] | 1 to 10 nM
31 | O=S(=O)(c1ccc(-c2cnnc(N3CCOCC3)c2)cc1)N1CC[C@@H](Nc2ccc(C(F)(F)F)cn2)[C@@H](O)C1 [Compound 200] | < 1 nM
32 | Nc1nnc(-c2cc(-c3ccc(S(=O)(=O)N4CC[C@@H](Nc5ccc(C(F)(F)F)cn5)[C@@H](O)C4)cc3)ccn2)o1 [Compound 69, (3S,4R)-1-((4-(2-(5-amino-1,3,4-oxadiazol-2-yl)pyridin-4-yl)phenyl)sulfonyl)-4-((5-(trifluoromethyl)pyridin-2-yl)amino)piperidin-3-ol] | < 1 nM
